The record followed here is ChEMBL document CHEMBL6083280, “De Novo Discovery of a Noncovalent Cell-Penetrating Bicyclic Peptide Inhibitor Targeting SARS-CoV-2 Main Protease” (J Med Chem, 2024).

Positions of bridges follow the written chain, without caps; N, C: chain ends. Residues, ends and D or L forms follow the SMILES beside them. Some results are limits rather than exact numbers.

The target in the experiment is Replicase polyprotein 1ab (Severe acute respiratory syndrome coronavirus 2, UniProt P0DTD1). Description: Inhibition of N-terminal his-tagged SARS-CoV-2 Main protease expressed in Escherichia coli BL21 (DE3) using Dabcyl-TSAVLWSGFRICMK-Edans as substrate preincubated for 10 mins by microplate reader analysis.

With `CC[C@H](C)[C@@H]1NC(=O)[C@H](Cc2c[nH]cn2)NC(=O)[C@H](CO)NC(=O)[C@H](Cc2ccccc2)NC(=O)[C@H](Cc2ccc(O)cc2)NC(=O)[C@H](CCC(N)=O)NC(=O)[C@H]([C@@H](C)O)NC(=O)[C@H](Cc2ccc(O)cc2)NC(=O)CSC[C@@H](C(=O)N[C@@H](CO)C(=O)N[C@@H](CO)C(=O)N[C@@H](CCCNC(=N)N)C(=O)N[C@@H](CO)C(=O)NCC(N)=O)NC1=O` ({CH2CO}-YTQYFSHICSSRSG-NH2; thioether N-9), the concentration for half-maximal inhibition (IC50) is more than 100000 nM.

Take `CC(C)C[C@@H]1NC(=O)[C@H](Cc2ccccc2)NC(=O)[C@@H]2CCCN2C(=O)[C@H]([C@@H](C)O)NC(=O)[C@H]([C@@H](C)O)NC(=O)[C@H]([C@@H](C)O)NC(=O)[C@H](Cc2c[nH]cn2)NC(=O)[C@H](Cc2ccccc2)NC(=O)[C@H]([C@@H](C)O)NC(=O)[C@H](C)NC(=O)[C@@H](Cc2ccc(O)cc2)NC(=O)CSC[C@@H](C(=O)NCC(N)=O)NC(=O)[C@@H]2CCCN2C(=O)[C@@H]2CCCN2C1=O`: the concentration for half-maximal inhibition (IC50) is more than 10000 nM.

The compound `CC(C)C[C@@H]1NC(=O)[C@H](Cc2ccccc2)NC(=O)[C@@H]2CCCN2C(=O)[C@H]([C@@H](C)O)NC(=O)[C@H]([C@@H](C)O)NC(=O)[C@H]([C@@H](C)O)NC(=O)[C@H](Cc2c[nH]cn2)NC(=O)[C@H](C)NC(=O)[C@H]([C@@H](C)O)NC(=O)[C@H](C(C)C)NC(=O)[C@@H](Cc2ccc(O)cc2)NC(=O)CSC[C@@H](C(=O)NCC(N)=O)NC(=O)[C@@H]2CCCN2C(=O)[C@@H]2CCCN2C1=O` came in with an IC50 of more than 10000 nM. Compound `CC(C)[C@@H]1NC(=O)[C@@H](Cc2ccc(O)cc2)NC(=O)CSC[C@@H](C(=O)NCC(N)=O)NC(=O)[C@@H]2CCCN2C(=O)[C@@H]2CCCN2C(=O)[C@H](C)NC(=O)[C@H](Cc2ccccc2)NC(=O)[C@@H]2CCCN2C(=O)[C@H]([C@@H](C)O)NC(=O)[C@H]([C@@H](C)O)NC(=O)[C@H]([C@@H](C)O)NC(=O)[C@H](Cc2c[nH]cn2)NC(=O)[C@H](Cc2ccccc2)NC(=O)[C@H]([C@@H](C)O)NC1=O` had an IC50 of 370 nM. The compound `CC(C)C[C@@H]1NC(=O)[C@H](Cc2ccccc2)NC(=O)[C@@H]2CCCN2C(=O)[C@H]([C@@H](C)O)NC(=O)[C@H](C)NC(=O)[C@H]([C@@H](C)O)NC(=O)[C@H](Cc2c[nH]cn2)NC(=O)[C@H](Cc2ccccc2)NC(=O)[C@H]([C@@H](C)O)NC(=O)[C@H](C(C)C)NC(=O)[C@@H](Cc2ccc(O)cc2)NC(=O)CSC[C@@H](C(=O)NCC(N)=O)NC(=O)[C@@H]2CCCN2C(=O)[C@@H]2CCCN2C1=O` showed a concentration for half-maximal inhibition (IC50) of 200 nM. The result for `CC(C)C[C@@H]1NC(=O)[C@H](Cc2ccccc2)NC(=O)[C@@H]2CCCN2C(=O)[C@H]([C@@H](C)O)NC(=O)[C@H]([C@@H](C)O)NC(=O)[C@H]([C@@H](C)O)NC(=O)[C@H](Cc2c[nH]cn2)NC(=O)[C@H](Cc2ccccc2)NC(=O)[C@H](C)NC(=O)[C@H](C(C)C)NC(=O)[C@@H](Cc2ccc(O)cc2)NC(=O)CSC[C@@H](C(=O)NCC(N)=O)NC(=O)[C@@H]2CCCN2C(=O)[C@@H]2CCCN2C1=O` reads 1650 nM; that for `CC(C)C[C@@H]1NC(=O)[C@H](Cc2ccccc2)NC(=O)[C@@H]2CCCN2C(=O)[C@H]([C@@H](C)O)NC(=O)[C@H]([C@@H](C)O)NC(=O)[C@H](C)NC(=O)[C@H](Cc2c[nH]cn2)NC(=O)[C@H](Cc2ccccc2)NC(=O)[C@H]([C@@H](C)O)NC(=O)[C@H](C(C)C)NC(=O)[C@@H](Cc2ccc(O)cc2)NC(=O)CSC[C@@H](C(=O)NCC(N)=O)NC(=O)[C@@H]2CCCN2C(=O)[C@@H]2CCCN2C1=O`, 510 nM; that for `CC(C)C[C@@H]1NC(=O)[C@H](Cc2ccccc2)NC(=O)[C@H](C)NC(=O)[C@H]([C@@H](C)O)NC(=O)[C@H]([C@@H](C)O)NC(=O)[C@H]([C@@H](C)O)NC(=O)[C@H](Cc2c[nH]cn2)NC(=O)[C@H](Cc2ccccc2)NC(=O)[C@H]([C@@H](C)O)NC(=O)[C@H](C(C)C)NC(=O)[C@@H](Cc2ccc(O)cc2)NC(=O)CSC[C@@H](C(=O)NCC(N)=O)NC(=O)[C@@H]2CCCN2C(=O)[C@@H]2CCCN2C1=O`, 390 nM.

In general, IC50 refers to the midpoint of a concentration-inhibition curve. Lower therefore signals greater potency in that assay.
